# Where “and” joins values, the source holds several entries; their conditions need not be identical. Identical values can stand only once. Marks after values point to notes of the source that are not given here. Ends that are not written are not given here.
# Legend:
# [1] = system: mononuclear phagocyte; test: Carbon particle clearance test, phagocytosis function; assay type: in vivo, BALB/c mice; set-up: key to X ± SD (phagocytotic index): α = cube root of K × (body weight ÷ liver+spleen weight); conditions: for X ± SD (phagocytotic index): healthy mice, saline 5.1 ± 0.6; for effect on the phagocytotic activity of mononuclear phagocyte (summary): statistically significant difference from saline in any of the dosage groups 0.5-500 μg/kg/day
# Method in brief: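 Clearance index K came from OD680 of blood sampled 1 and 5 min after tail-vein India ink ([…], diluted 5×), given on day 16. Phagocytic index α combined K with liver, spleen […] weights taken the same day.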
# [2] = system: NK cell; test: NK cell cytotoxicity activity test (spleen cells of treated mice against YAC-1 target cells, MTT); assay type: in vivo, BALB/c mice; conditions: for NK cell cytotoxic activity, X ± SD (%): healthy mice; for effect on the cytotoxic activity of NK cells (summary): statistically significant difference from saline in any of the dosage groups 0.5-500 μg/kg/day
# Method in brief: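 Mice (10 per group) dosed i.p. once daily for 15 days in saline; spleen cells harvested the next day. Splenocytes (4×10^6/ml) co-cultured with YAC-1 targets (1×10^5/ml), in triplicate per mouse. Viability by MTT (1 mg/ml, 4 h, 37 °C), read at OD570 against 630 nm.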
# [3] = system: thymus gland; test: Immunity organ weight test, thymus gland index; assay type: in vivo, BALB/c mice; conditions: for weight of thymus gland (thymus gland index), X ± SD (%): healthy mice, saline 0.12 ± 0.02; for effect on the weight of the thymus gland (summary): statistically significant difference from saline in any of the dosage groups 0.5-500 μg/kg/day
# Description: One day after the last test substance administration (day 16), the liver, spleen, and thymus gland were separated and blotted dry with filter paper and weighed. The phagocytosis index α was calculated as below: α=(^3√{square root over ( )}K)(W÷WLS)
# Thymus gland index (%)=(thymus weight/body weight)×100%
# [4] = system: interferon (IFN); set-up: species or system BALB/c mice; conditions: mouse, in vivo; for activity of T lymphocyte in secreting IFN, X ± SD (IU): ip
# [5] = system: anti-SRBC antibody; test: Sheep Red Blood Cell (SRBC) hemolysis test, antibody formation; assay type: in vivo, BALB/c mice; conditions: for anti-SRBC antibody formation, X ± SD (Unit): healthy mice, SRBC day 12 (IFN-γ, IL-2 3×10^5 IU/kg/day), saline 32 ± 7; for effect on the synthesis of anti-SRBC antibody upon the antigenic challenge (summary): statistically significant difference from saline in any of the dosage groups 0.5-500 μg/kg/day
# Method in brief: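 Mice immunized intraperitoneally with 0.2 ml SRBC on day 12; serum taken on day 16, diluted 500-fold. Serum incubated with 2% SRBC and guinea pig complement 10 min at 37° C; released haemoglobin read at OD540 with Drabkin solution. Serum index = (sample OD540 ÷ reference OD540) × 500.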
# [6] = peptide 5 μg/kg/day i.p. 15 days (IFN-γ, IL-2 3×10^5 IU/kg/day)
# [7] = peptide 500 μg/kg/day i.p. 15 days (IFN-γ, IL-2 3×10^5 IU/kg/day), saline 63 ± 9
# [8] = peptide 50 μg/kg/day i.p. 15 days (IFN-γ, IL-2 3×10^5 IU/kg/day)
# [9] = peptide 500 μg/kg/day i.p. 15 days (IFN-γ, IL-2 3×10^5 IU/kg/day)
# [10] = peptide 5 μg/kg/day i.p. 15 days
# [11] = peptide 500 μg/kg/day i.p. 15 days
# [12] = peptide 5 μg/kg/day i.p. 15 days (IFN-γ, IL-2 3×10^5 IU/kg/day), saline 60 ± 9
# [13] = peptide 0.5 μg/kg/day i.p. 15 days
# [14] = peptide 50 μg/kg/day i.p. 15 days
# [15] = peptide 0.5 μg/kg/day i.p. 15 days (IFN-γ, IL-2 3×10^5 IU/kg/day), saline 58 ± 7
# [16] = peptide 0.5 μg/kg/day i.p. 15 days (IFN-γ, IL-2 3×10^5 IU/kg/day)
Substance,"X ± SD (phagocytotic index) [1, 6]",effect on the phagocytotic activity of mononuclear phagocyte (summary) [1],"NK cell cytotoxic activity, X ± SD (%) [2, 7]",effect on the cytotoxic activity of NK cells (summary) [2],"weight of thymus gland (thymus gland index), X ± SD (%) [3, 6]","weight of thymus gland (thymus gland index), X ± SD (%) [3, 8]","weight of thymus gland (thymus gland index), X ± SD (%) [3, 9]",effect on the weight of the thymus gland (summary) [3],effect on the secretion of IFN by T lymphocytes (summary) [4],"activity of T lymphocyte in secreting IFN, X ± SD (IU) [4]","anti-SRBC antibody formation, X ± SD (Unit) [5, 10]","anti-SRBC antibody formation, X ± SD (Unit) [5, 11]",effect on the synthesis of anti-SRBC antibody upon the antigenic challenge (summary) [5],"NK cell cytotoxic activity, X ± SD (%) [2, 12]","anti-SRBC antibody formation, X ± SD (Unit) [5, 13] [Unit]","anti-SRBC antibody formation, X ± SD (Unit) [5, 14]","NK cell cytotoxic activity, X ± SD (%) [2, 15] [%]","X ± SD (phagocytotic index) [1, 9]","weight of thymus gland (thymus gland index), X ± SD (%) [3, 16] [%]"
IGMESAGIHETTY [CMS016],6.9 ± 0.8*^,enhance,91 ± 7*^@^ %,increase,0.22 ± 0.06 %,0.20 ± 0.03*^@^ %,0.18 ± 0.05 %,increase,enhance,162 ± 19*^@^ IU,93 ± 32*^@ Unit,143 ± 38*^@^ Unit,enhance,–,–,–,–,–,–
LRVAPQQHPTL [CMS009],6.9 ± 0.9*^,enhance,–,increase,–,–,–,–,enhance,121 ± 15*^ IU,79 ± 18*^@ Unit,113 ± 22*^@^ Unit,–,92 ± 6*^@^ %,2 ± 1,13 ± 5 Unit,–,–,–
RVAPQQHPTL [CMS011],6.4 ± 1.1,enhance,–,increase,0.22 ± 0.04 %,–,–,–,enhance,89 ± 18 IU,115 ± 27*^@^ Unit,188 ± 16*^@^ Unit,–,76 ± 10 %,5 ± 3,67 ± 9*^@ Unit,79 ± 3,–,–
Tyr Ser Phe (YSF; listed as Sus scrofa) [CMS022],–,enhance,–,increase,0.25 ± 0.04*^@^ %,0.30 ± 0.03*^@^ %,0.26 ± 0.05*^@^ %,increase,enhance,145 ± 13*^@^ IU,–,68 ± 31*^@ Unit,enhance,–,–,110 ± 16*^@^ Unit,73 ± 11,7.4 ± 0.6*^@^,0.21 ± 0.06
VAPEEHPTLLTEAPLNPK [CMS010],7.1 ± 0.7*^,enhance,91 ± 4*^@^ %,increase,0.27 ± 0.05*^@^ %,–,0.19 ± 0.04 %,increase,enhance,167 ± 13*^@^ IU and 142 ± 18*^@^ IU,–,112 ± 30*^@^ Unit,–,82 ± 9 %,10 ± 3,–,–,–,0.21 ± 0.03

# — US20060167229A1, “Biologically active peptide conjugates” (priority 2002, published 2006)
